Data reported in ChEMBL document CHEMBL1124465, “Dynamics and thermodynamics of the counterion effect in a 7H-pyridocarbazole dimer (ditercalinium). Hypothesis of a nonbisintercalative binding mode to calf thymus DNA at high drug/base ratio” (J Med Chem, 1989).

What was measured:
[1] = test system: Nucleic Acid; assay: Monointeraction into calf thymus DNA at pH 7.4; format: nucleic-acid assay
[2] = test system: Nucleic Acid; assay: Monointeraction into calf thymus DNA at pH 5; format: nucleic-acid assay

How did the Ka [1] turn out when `COc1ccc2[nH]c3ccc4cc[n+](CCN5CCC(C6CCN(CC[n+]7ccc8ccc9[nH]c%10ccc(OC)cc%10c9c8c7)CC6)CC5)cc4c3c2c1` was run?
Its Ka is 2e+07 M⁻¹.

And the Ka [2]?
Its Ka is 5e+08 M⁻¹.
